Laboratory results: patent publication US5089654A, “Chalcone derivatives” (Taisho Pharmaceutical Co., Ltd., priority 1989, dated 1992)

Tests used:
[1] = test system: gastric lesions induced by 0.6 N hydrochloric acid; assay: Gastric Mucosal Protection Test (gastric lesions induced by 0.6 N hydrochloric acid); assay type: in vivo, Male Wistar rats; details: Rattus norvegicus, oral, Wistar rats, 0.6 N HCl, read-out: Inhibition ratio (lesion index, gastric mucosal protection)
Procedure: Experiment 2 Gastric Mucosal Protection Test
(§1) The test drugs used were the compounds obtained in the foregoing Examples. Number in test drug column of Table 8 means a compound which is prepared in the correspondingly numbered Example.
Also, symbols A-E in test drug column of Table 9 are as defined in Experiment 1.
The test of protection effect against the gastric lesions induced by 0.6 N hydrochloric acid (gastric mucosal protection effect) was carried out according to a method of A. Robert et al as described in Gastroenterology,vol. 77, pages 433-443 (1979).
Male Wistar rats weighing 180-210 g (7 animals for each group), after a 24 hour-fast, were given orally the test drug (50 mg/kg and/or 100 mg/kg) suspended in 0.4% CMC. After standing at room temperature for 2 hours, 0.6 N hydrochloric acid was given orally in a dose of 1 ml per rat. After standing at room temperature for a further one hour, rats were killed to measure the length of the gastric mucosal lesions induced in the stomachs, and total of the length was designated as the lesion index per rat.
The inhibition ratio (%) was calculated by comparison of the lesion index of the group treated with the test drug with the untreated group.

stress ulcer = assay: Stress Ulcer Inhibition Test; assay type: in vivo, Male Wistar rats; details: Rattus norvegicus, 7 h, oral, Wistar rats, read-out: Inhibition ratio (stress ulcer)
Procedure: Experiment 1 Stress Ulcer Inhibition Test
as §1
Also, symbols A-E in test drug column of Table 8 mean the following compounds used as the control compounds.
The stress ulcer inhibition test was carried out according to a method of K. Takagi et al as described in Japan J. Pharmacol., vol. 18, page 9 (1968).
Male Wistar rats weighing 160 to 180 g (7 animals for each group), after a 24 hour-fast, were given orally the test drug (50 mg/kg and/or 100 mg/kg) suspended in 0.4% CMC, and placed in the stress cage made of a galvanized wire net, which was then immerged into the thermostatic water bath kept on 23° C. until the lower part of the sternum of the animals. Seven hours later, the animals were lapotomized to measure the area of the mucosa produced in the stomach, and the inhibition ration was calculated.

gastric acid secretion = assay: 2-DG-induced Acid Secretion Test, Gastric Lumen Perfused Rats; assay type: in vivo; details: intraperitoneal
Procedure: Experiment 3 2-DG-induced Acid Secretion Test Gastric Lumen Perfused Rats
The test was carried out according to the method of K. Watanabe et al in Eur. J. Pharmacology, vol. 90, page 11-17 (1983), and the inhibition ratio of gastric acid secretion of the test drug was calculated.
Number and symbol in test drug column are as defined above.
The test drug was given intraperitoneally.

Row | SMILES | inhibition in vivo at 50 mg/kg [1] [%] | inhibition in vivo at 50 mg/kg (stress ulcer) [%] | other results
1 | CCCCCCCc1ccc(/C=C/C(=O)c2ccc(OCC=C(C)C)cc2OCC(=O)OCC)cc1 [Example 18] | 37.6 | – | inhibition in vivo at 100 mg/kg [1]: 53.8%
2 | CC(C)=CCOc1ccc(C(=O)/C=C/c2ccc(OCC(=O)O)cc2)c(OCC(=O)O)c1 [B, 2',4-bis(carboxymethoxy)-4'-(3-methyl-2-butenyloxy)chalcone, reference compound] | < 10 | < 10 | –
3 | CC(C)=CCOc1ccc(C(=O)/C=C/c2ccc(C(=O)O)cc2)c(OCC(=O)O)c1 [A, 4-carboxy-2'-carboxymethoxy-4'-(3-methyl-2-butenyloxy)chalcone, reference compound] | < 10 | < 10 | –
4 | CCCCCCc1ccc(/C=C/C(=O)c2ccc(OCC=C(C)C)cc2OC(C)C(=O)O)cc1 (centres unmarked) [Example 46] | – | 63 | –
5 | CCCCCCc1ccc(/C=C/C(=O)c2ccc(OCC=C(C)C)cc2OCC(=O)O)cc1 [Example 29, 2'-carboxymethoxy-4-n-hexyl-4'-(3-methyl-2-butenyloxy)chalcone] | 81.2 | 67.3 | inhibition in vivo at 100 mg/kg [1]: 83.7%
6 | CCCCCC/C=C/c1ccc(/C=C/C(=O)c2ccc(OCC=C(C)C)cc2OCC(=O)O)cc1 [Example 49, 2'-carboxymethoxy-4'-(3-methyl-2-butenyloxy)-4-(1-(E)-octenyl)chalcone] | – | 76.6 | –
7 | CC(C)=CCOc1ccc(/C=C/C(=O)c2ccc(OCC=C(C)C)cc2OCC(=O)O)cc1 [C, 2'-carboxymethoxy-4,4'-bis(3-methyl-2-butenyloxy)chalcone, reference compound] | < 10 | < 10 | Inhibition ratio of gastric acid secretion (gastric acid secretion; 200 mg/kg): 35.2%
8 | CCCCCCCc1ccc(/C=C/C(=O)c2ccc(OCC=C(C)C)cc2OCC(=O)O)cc1 [Example 30, 2'-carboxymethoxy-4-n-heptyl-4'-(3-methyl-2-butenyloxy)chalcone] | 83.8 | 91.8 | inhibition in vivo at 100 mg/kg [1]: 94.4%
9 | CCCC/C=C/c1ccc(/C=C/C(=O)c2ccc(OCC=C(C)C)cc2OCC(=O)O)cc1 [Example 51] | – | 93.3 | –
10 | C=CCCc1ccc(/C=C/C(=O)c2ccc(OCC=C(C)C)cc2OCC(=O)O)cc1 [Example 54] | – | 56.9 | –
11 | CCCCCCCCc1ccc(/C=C/C(=O)c2ccc(OCC=C(C)C)cc2OCC(=O)O)cc1 [Example 31] | – | 77.2 | –
12 | CC(C)=CCOc1ccc(C(=O)/C=C/c2ccc(C(C)(C)C)cc2)c(OC(C)C(=O)O)c1 (centres unmarked) [Example 45, 4-(t-butyl)-2'-(1-carboxethoxy)-4'-(3-methyl-2-butenyloxy)chalcone] | – | 50.4 | –
13 | CC(C)=CCOc1ccc(C(=O)/C=C/c2ccc(C)cc2)c(OCC(=O)O)c1 [D, 2'-carboxymethoxy-4-methyl-4'-(3-methyl-2-butenyloxy)chalcone, reference compound] | < 10 | < 10 | inhibition in vivo at 100 mg/kg (stress ulcer): 26.2%
14 | CCCCCCCCCCCCCCCc1ccccc1/C=C/C(=O)c1ccc(OCC=C(C)C)cc1OCC(=O)O [Example 36] | – | 48.7 | –
15 | CC(C)=CCOc1ccc(C(=O)/C=C/c2ccc(C(C)(C)C)cc2)c(OCCCC(=O)O)c1 [Example 48] | – | – | inhibition in vivo at 100 mg/kg (stress ulcer): 72%
16 | CCCCCc1ccc(/C=C/C(=O)c2ccc(OCC=C(C)C)cc2OCC(=O)O)cc1 [Example 27] | – | 86.3 | –
17 | CC(C)=CCOc1ccc(C(=O)/C=C/c2ccc(C(C)(C)C)cc2)c(OCC(=O)O)c1 [Example 44, 4-t-butyl-2'-carboxymethoxy-4'-(3-methyl-2-butenyloxy)chalcone] | 61.9 | 76 | inhibition in vivo at 100 mg/kg [1]: 82.8%; Inhibition ratio of gastric acid secretion (gastric acid secretion; 30 mg/kg): 54.3%; Inhibition ratio of gastric acid secretion (gastric acid secretion; 100 mg/kg): 66.8%; inhibition in vivo at 100 mg/kg (stress ulcer): 84.2%
18 | CCCCc1ccc(/C=C/C(=O)c2ccc(OCC=C(C)C)cc2OCC(=O)O)cc1 [Example 25] | – | 61 | inhibition in vivo at 100 mg/kg (stress ulcer): 63%
19 | CCCCC/C=C/c1ccc(/C=C/C(=O)c2ccc(OCC=C(C)C)cc2OCC(=O)O)cc1 [Example 52] | – | 93.4 | –
20 | CCCc1ccc(/C=C/C(=O)c2ccc(OCC=C(C)C)cc2OCC(=O)O)cc1 [E, 2'-carboxymethoxy-4'-(3-methyl-2-butenyloxy)-4-n-propylchalcone, reference compound] | 24.8 | 33.7 | inhibition in vivo at 100 mg/kg (stress ulcer): 57.1%
21 | CCC(C)c1ccc(/C=C/C(=O)c2ccc(OCC=C(C)C)cc2OCC(=O)O)cc1 (centres unmarked) [Example 24] | – | 70.5 | –
22 | CC(C)=CCOc1ccc(C(=O)/C=C/c2ccc(CCC(C)C)cc2)c(OCC(=O)O)c1 [Example 28] | – | 89 | –
